We go through one compound from US20230104487A1, “11-(4-CHLOROPHENYL)-4-(2,3-DIHYDRO-1H-INDOLE-1-CARBONYL)-3,11-DIMETHYL-5,10,DIOXATRICYCLO[7.4.0.0,2,6,]TRIDECA-1,3,6,8-TETRAEN-13-ONE AND DERIVATIVES AS DESTABILIZER OF CRY1 FOR THE TREATMENT OF CIRCADIAN RHYTHM ASSOCIATED DISEASES AND DISORDERS” (KOC UNIVERSITESI, priority 2019, published 2023).

Data set [1] has as its system Cry1−/−/Cry2−/− mouse embryonic fibroblasts. Kind of data set: Circadian reporter assay in CRY double knockout MEFs (mPer2-dLuc). The settings on record: DKO-MEF transfected with mPer2-luc. The data set is classed as cell-based. On the procedure:
Luminescence values were recorded at 32° C. for each 30 minutes with 15 seconds integration time via Synergy H1 luminometer for a week. For LumiCycle, 400×10^3 U2-OS Bmal1-dLuc or NIH3T3 mPer2-dLuc cells were seeded to 35 mm plates and then procedure given above was followed with a change in the last step. Plates were sealed with vacuum grease and placed to LumiCycle. Each plate was recorded continuously every 10 minutes for 70 seconds at 37° C. via photomultiplier tubes. Period and amplitude data were obtained from LumiCycle Analysis software. To detect the effect of FORMULA I in the absence of CRYs, Cry1^−/−/Cry2^−/− mouse embryonic fibroblasts (CRYDKO MEFs) transiently transfected with pGL3-Per2-Luc (luciferase reporter) were used. 3×10^5 CRYDKO cells were seeded in 35 mm clear plates. Next day, cells were transfected with 4000 ng pGL3-Per2-Luc via Fugene6 transfection reagent according to the manufacturer's instruction. In short, 3:1 ratio of Fugene6 in μl against transfected DNA amount in μg was kept in transfections. 72 h after transfection cells were synchronized with DXM for two hours. Then, medium was changed with lumicycle medium having DMSO or molecule, sealed with vacuum grease, and placed to LumiCycle.
Background: Reporter assays use an easily measured gene product as a stand-in for the process of interest.

Data set [2] deals with C57BL/6J mice. Kind of data set: Single dose toxicity study in mice. The data set is classed as in vivo. On the procedure:
Male and female C57BL/6J mice, 8-12 weeks of age, weighing 18-24 g were used in the in vivo studies with FORMULA I. Mice were obtained from Kog University Animal Research Facility (KUTTAM) and experiments were conducted in accordance with the guidelines approved for animal experimental procedures by the Koc University Animal Research Local Ethics Committee (No: 2015/13).
Mice were housed in polystyrene cages up to four animals in the room equipped with temperature control (21±2° C.) and humidity (55±5%). Mice were housed under 12 h of light (L) in alternation with 12 h of darkness (D) (LD 12:12) prior to any intervention and the same lighting regimen continued to the end of the experiment. Water and food were provided ad libitum throughout the experiments. FORMULA I or vehicle were administered intraperitoneally to mice at the same time every day (three hours after light onset). […]
The dose levels to be used in the single dose toxicity study were selected according to the OECD Guidelines (Guidelines for the testing of chemicals, 2002). […] Body weight was measured every day as an index of general toxicity. […] The body temperatures of the mice were recorded by rectal homeothermic monitor (Harvard Apparatus, US) for 5 days following FORMULA I injection. […] Food intake and water consumption were also monitored for 14 days. […] Hematological parameters were analyzed in blood samples.

Data set [3] has as its system C57BL/6J mice. Description: Repeated dose toxicity study, 5-day maximum tolerated dose. The data set is classed as in vivo. On the procedure: The single dose toxicity data were used to assist the selection of the doses in this repeated dose toxicity study. C57BL/6J mice (n=6 per group) were treated with 40, 80 or 150 mg/kg doses of FORMULA I intraperitoneally for 5 days. Control mice (n=4) were only treated with vehicle (DMSO:Cremophor EL:0.9% NaCl; 2.5:15:82.5, v/v, i.p.). Throughout the study, animals were monitored for mortality, clinical signs, body weight changes, body temperature, food and water consumptions, behaviour assessment and gross findings at the terminal necropsy. Body weights and body temperatures of mice were measured every day as an index of toxicity. Within 48 h after the last dose of FORMULA I administration, blood was collected from mice by cardiac puncture under isoflurane anesthesia. Hematological and biochemical analyzes were performed in blood. Liver, spleen, kidneys and lungs were removed and fixed in 10% formalin solution for histological examinations.

Where [4] appears, read: 150 mg/kg i.p. for 5 days, 3th day of injection.

Structures are written as SMILES.

Broadly, the mortality is the percentage killed. Low readings indicate a weak lethal effect, high ones a strong lethal effect. With `Cc1c(C(=O)N2CCc3ccccc32)oc2ccc3c(c12)C(=O)CC(C)(c1ccc(Cl)cc1)O3` (centres unmarked) [FORMULA I, 11-(4-chlorophenyl)-4-(2,3-dihydro-1H-indole-1-carbonyl)-3,11-dimethyl-5,10,dioxatricyclo[7.4.0.0,2,6,]trideca-1,3,6,8-tetraen-13-one], the “effect on rhythm in absence of CRYs” value in data set [1] is “had no effect”. The tolerability entry in data set [2] (single doses of 5 and 50 mg/kg) was “well-tolerated”; in data set [3] (doses of 5 and 80 mg/kg (so in the source), 5 days), “well-tolerated”. Moreover, in data set [2] (summary statement), the “toxic effect in pharmacological studies with mice” value is on record as “no toxic effect”. Also, the body temperature entry in data set [3] (40 mg/kg i.p. for 5 days) is “comparable to the control animals”. Besides, the clinical signs entry in data set [3] (150 mg/kg i.p. for 5 days) is “hyporeflexia”; in data set [3] (40 and 80 mg/kg i.p. for 5 days), “no observed clinical signs”. Further, the deaths in data set [3] (setting [4]) is listed as 1/6. Besides, the mortality in data set [3] (setting [4]) was 16.6%. In addition, the “highest mean body weight loss” value in data set [3] (150 mg/kg i.p., 3rd day of injection) is 6.3%. The “body temperature (mild hypothermia)” value in data set [3] (80 and 150 mg/kg i.p., first day) was 33.4-35.8 °C.
